# Results taken from patent US20250177324A1, “A[…], AND PREPARATION METHOD THEREFOR AND USE THEREOF” (SHANGHAI ZHIGEN PHARMACEUTICAL & TECHNOLOGY CO. LTD., priority 2022, published 2025).
# Counter-ions that a name gives are not always drawn. Like-named read-outs stand apart in the source and are kept apart here.
# Experiments:
# [1] = Solid-state chemical stability under different storage conditions (liquid chromatography); assay type: physicochemical; conditions: for Stability of solid state compound, 0 Days (%): liquid chromatography
# Procedure: The HPLC conditions were as follows:
# Configuration of test solution: appropriate amount of sample was dissolved and diluted with a diluent (0.03 mol/L phosphate buffer-acetonitrile (80:20)) to make 1 mg/mL solution.
# Chromatographic conditions: according to the high performance liquid chromatography (Chinese Pharmacopoeia 2020 version of the four general 0512) test, using octadecyl-bonded silica gel (Agilent Eclipse Plus C18, 4.6 mm*250 mm, 5.0 μm, P/N for 959990-902 or a chromatographic column with equivalent performance) as a filler; 0.03 mol/L phosphate buffer (4.08 g of potassium dihydrogen phosphate was dissolved in 1000 ml of water and shaken well) was used as mobile phase A and acetonitrile as mobile phase B at a flow rate of 1 ml/min, the column temperature was 30° C., the detection wavelength was 220 nm, the injection volume was 10 ul, and the sample plate was controlled to 8° C. and running for 65 min. Gradient elution was performed according to the following table: […]
# Configuration of test solution: appropriate amount of the product was dissolved and diluted with a diluent (0.1% phosphoric acid-acetonitrile (80:20)) to make 1 mg/mL solution.
# Chromatographic conditions: according to the high performance liquid chromatography (Chinese Pharmacopoeia 2020 version of the four general 0512) test, using octadecyl bonded silica gel (Agilent Eclipse Plus C18, 4.6 mm*250 mm, 5.0 μm, P/N 959990-902 or a chromatographic column with equivalent performance) as a filler; 0.1% phosphate buffer (1 ml of phosphoric acid in 1000 ml of water and shake well) as mobile phase A, acetonitrile as mobile phase B, flow rate of 1 ml/min, column temperature of 30° C., detection wavelength of 220 nm, injection volume of 10 ul, running for 48 minutes. Gradient elution was performed according to the following table: […]
# C57 mice = test: Forced swim test of oral administration in mice (antidepressant activity); assay type: in vivo; conditions: Mus musculus, po, reduction of immobility time vs blank group, single gavage 20 mg/kg
# Procedure: To investigate the effects of different compounds on depression-like behavior in C57 mice by single oral administration of 20 mg/kg for 1 h and 24 h followed by forced swimming experiment, respectively.
# The experimental animals were 6-week-old C57 mice, male, C57 breed mice purchased from Shanghai Slaughter Laboratory Animal Co. Ltd, weighing 20.45±0.19 g. The animals arrived at the Animal Breeding Center of the Shanghai Institute of Pharmaceutical Sciences, Chinese Academy of Sciences (Animal Production License: SCXK9[Shanghai]2004-0002, Use License: SYXK [Shanghai]2003-0029) before the experiments and were acclimated to the animal facilities for more than 3 days, 6 animals/cage were feed. The feeding environment was room temperature 23±0.2° C. and 12/12 h day/night alternating light and dark. Prior to behavioral testing, animals were moved to the behavioral testing room 2 hours in advance to acclimatize them to the environment and reduce their nervousness.
# Preparation of the test material: the test compounds were weighed and dissolved in 0.9% NaCl solution, mixed well, and prepared into 1 mg/ml and 2 mg/ml solution for use, respectively.
# 24 h prior to drug administration, mice were placed in a cylindrical tank to acclimatize to the water environment for 10 min. On the day of the behavioral test, the animals were administered the drug once, by gavage/intraperitoneal injection at 1 h and 24 h prior to the behavioral test, respectively (as shown in Table 1).
# The antidepressant effect of the compounds was evaluated by their ability to cause a reduction in the immobility time of the animals in the forced swim test compared to the blank group.
Compound,"Stability of solid state compound, 0 Days (%) ([1]; 40° C., 75% RH)","Stability of solid state compound, 5 Days (%) ([1]; 40° C., 75% RH)","Stability of solid state compound, 10 Days (%) ([1]; 40° C., 75% RH)","Stability of solid state compound, 30 Days (%) ([1]; 40° C., 75% RH)",other results
"CNC1(c2cccc(C#N)c2)CCCC(C)(O)C1=O.Cl (stereo not shown) [Compound 63, 3-(3-hydroxy-3-methyl-1-methylamino-2-oxocyclohexyl)benzonitrile hydrochloride]",99.67%,99.66%,99.66%,99.66%,
"Cl.NC1(c2cccc(OC(F)(F)F)c2F)CCCC(O)C1=O (stereo not shown) [Comparative compound 14, reference compound]",98.58%,,,93.96%,
"CN[C@]1(c2ccc(C(F)(F)F)cc2)CCC[C@@](C)(O)C1=O.Cl [Compound 75, (2R,6S)-2-hydroxy-2-methyl-6-methylamino-6-(4-(trifluoromethyl)phenyl)cyclohexan-1-one hydrochloride]",99.85%,,99.78%,99.77%,
"C[C@@H]1CC[C@@](N)(c2ccccc2Cl)C(=O)[C@@H]1O [Comparative compound 3, reference compound]",,,,,"inhibition in vivo at 20 mg/kg (C57 mice; test 1 h after dosing, read-out: 1 h inhibition (%)): 22.6 ± 2.7%; inhibition in vivo at 20 mg/kg (C57 mice; test 24 h after dosing, read-out: 24 h inhibition (%)): 23.7 ± 3.2%"
"CN[C@@]1(c2ccc(C(F)(F)F)cc2)CCC[C@@H](O)C1=O.Cl [Comparative compound 8, reference compound]",98.4%,73.0%,,,
"CC(=O)N[C@@]1(c2ccc(C(F)(F)F)cc2)CCC[C@](C)(O)C1=O [Compound 37, N-((1R,3S)-3-hydroxy-3-methyl-2-oxo-1-(4-(trifluoromethyl)phenyl)cyclohexyl)acetamide]",,,,,"Stability of solid state compound, 0 Days (%) ([1]; 25° C., 60% RH): 99.69%; Stability of solid state compound, 10 Days (%) ([1]; 25° C., 60% RH): 99.65%; Stability of solid state compound, 30 Days (%) ([1]; 25° C., 60% RH): 99.69%"
"CN[C@@]1(c2cccc(C#N)c2)CCC[C@](C)(O)C1=O.Cl [Compound 64, 3-((1R, 3S)-3-hydroxy-3-methyl-1-methylamino-2-oxocyclohexyl)benzonitrile hydrochloride]",99.88%,99.88%,99.89%,99.85%,
"CC1(O)CCCC(N)(c2cccc(OC(F)(F)F)c2F)C1=O (stereo not shown) [Compound 43, 2-amino-2-(2-fluoro-3-(trifluoromethoxy)phenyl)-6-hydroxy-6-methylcyclohexan-1-one hydrochloride]",98.73%,,,98.75%,
"Cl.NC1(c2c(F)cc(F)cc2F)CCCC(O)C1=O (stereo not shown) [Comparative compound 13, reference compound]",98.31%,,97.05%,96.04%,
"Cl.N[C@]1(c2ccc(C(F)(F)F)cc2)CCC[C@H](O)C1=O [Comparative compound 2, reference compound]",99.48%,,97.11%,94.26%,"Stability of solid state compound, 60 Days (%) ([1]; 40° C., 75% RH, 60 days): 89.97%"
"CC(=O)N[C@@]1(c2ccc(C(F)(F)F)cc2)CCC[C@@H](O)C1=O [Comparative compound 10, reference compound]",,,,,"Stability of solid state compound, 0 Days (%) ([1]; 25° C., 60% RH): 99.77%; Stability of solid state compound, 10 Days (%) ([1]; 25° C., 60% RH): 99.69%; Stability of solid state compound, 30 Days (%) ([1]; 25° C., 60% RH): 97.51%"
"CNC1(c2cccc(OC(F)(F)F)c2)CCCC(O)C1=O.Cl (stereo not shown) [Comparative compound 11, reference compound]",98.15%,87.8%,75.44%,,
"CN(C)[C@@]1(c2ccc(C(F)(F)F)cc2)CCC[C@@](C)(O)C1=O.Cl [Compound 72, (2R,6R)-2-dimethylamino-6-hydroxy-6-methyl-2-(4-(trifluoromethyl)phenyl)cyclohexan-1-one hydrochloride]",99.69%,99.66%,99.62%,99.61%,
"CN[C@@]1(c2ccccc2Cl)CCC[C@](C)(O)C1=O.Cl [Compound 69, (2R,6S)-2-(2-chlorophenyl)-6-hydroxy-6-methyl-2-methylaminocyclohexan-1-one hydrochloride]",98.36%,,98.43%,98.34%,
"Cl.N#Cc1cccc(C2(N)CCCC(O)C2=O)c1 (stereo not shown) [Comparative compound 7, reference compound]",98.1%,87.5%,,,
"CNC1(c2cccc(OC(F)(F)F)c2)CCCC(C)(O)C1=O.Cl (stereo not shown) [Compound 67, 2-hydroxy-2-methyl-6-methylamino-6-(3-(trifluoromethoxy)phenyl)cyclohexan-1-one hydrochloride]",99.82%,,99.73%,99.57%,
"Cl.NC1(c2cccc(F)c2F)CCCC(O)C1=O (stereo not shown) [Comparative compound 12, reference compound]",97.16%,,,94.59%,
"CC1(O)CCCC(N)(c2cccc(F)c2F)C1=O.Cl (stereo not shown) [Compound 48, 2-amino-2-(2,3-difluorophenyl)-6-hydroxy-6-methylcyclohexan-1-one hydrochloride]",99.25%,99.28%,99.28%,99.17%,
"CCN[C@@]1(c2ccc(C(F)(F)F)cc2)CCC[C@@H](O)C1=O.Cl [Comparative compound 9, reference compound]",,,,,"Stability of solid state compound, 0 Days (%) ([1]; 25° C., 60% RH): 98.2%; Stability of solid state compound, 10 Days (%) ([1]; 25° C., 60% RH): 96.8%; Stability of solid state compound, 30 Days (%) ([1]; 25° C., 60% RH): 61%"
"CNC1(c2cccc(OC(F)(F)F)c2F)CCCC(C)(O)C1=O.Cl (stereo not shown) [Compound 56, 2-(2-fluoro-3-(trifluoromethoxy)phenyl)-6-hydroxy-6-methyl-2-(methylamino)cyclohexan-1-one hydrochloride]",99.61%,,,99.50%,
"CNC1(c2c(F)cc(F)cc2F)CCCC(C)(O)C1=O.Cl (stereo not shown) [Compound 58, 2-hydroxy-2-methyl-6-methylamino-6-(2,4,6-trifluorotoluene)cyclohexan-1-one hydrochloride]",99.34%,,99.12%,99.14%,
"CC1(O)CCCC(N)(c2c(F)cc(F)cc2F)C1=O (stereo not shown) [Compound 44, 2-amino-6-hydroxy-6-methyl-2-(2,4,6-trifluorotoluene)cyclohexan-1-one hydrochloride]",98.45%,98.53%,,98.35%,
"CC1(O)CCCC(N)(c2cccc(C#N)c2)C1=O.Cl (stereo not shown) [Compound 47, 3-(1-amino-3-hydroxy-3-methyl-2-oxocyclohexyl)benzonitrile hydrochloride]",98.89%,98.86%,,98.86%,
"CN[C@@]1(c2ccccc2Cl)CCC[C@@](C)(O)C1=O.Cl [Compound 70, (2R,6R)-2-(2-chlorophenyl)-6-hydroxy-6-methyl-2-methylaminocyclohexan-1-one hydrochloride]",97.84%,,97.84%,97.82%,
